Where a name gives a salt, the structure may show the parent alone.
How the values were obtained:
Conditions in all cases: exposure time 48 h
[1] = tested on: Caenorhabditis elegans N2; assay: mean nematode size ln(EXT) after 48 h, plate-adjusted (DMSO control set to 6) (ln(EXT), control-adjusted); higher = larger nematodes / less growth inhibition
Summary of the method: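 A growth model removed debris from Biosort extinction readings taken on each worm. These worms were synchronised C. elegans N2 L1 larvae, 50 per well in 4–6 wells per treatment, grown for 48 h at 20°C in K-medium with killed OP50, 1% DMSO and 0.5–200 µM chemical. Readings were natural-logged and averaged by well to give mean size. On each plate, the vehicle control mean was subtracted and 6 was added.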

[2] = tested on: Caenorhabditis elegans N2; assay: AC50 for larval growth inhibition (Hill fit); higher = less potent
Summary of the method: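 AC50 values come from a constrained Hill fit by weighted genetic-algorithm regression and are censored when out of range. The fit used only wells with at least 10 worms. Each well of a 96-well plate held 50 synchronised C. elegans N2 L1 larvae in K-medium with killed OP50, 1% DMSO and 0.5–200 µM chemical for 48 h at 20°C. A COPAS Biosort recorded each worm's size as extinction, which was log-transformed and averaged per well.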

[3] = tested on: Caenorhabditis elegans N2; assay: lowest effective concentration for larval growth inhibition (size below effect threshold); higher = less potent
Summary of the method: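 C. elegans N2 L1 larvae (50 per 96-well) were grown 48 h at 20°C in K-medium with killed bacteria, 1% DMSO and 0.5, 1, 5, 10, 50, 100 or 200 µM chemical. The Biosort measured per-worm extinction as size, and these were log-transformed into well means. The lowest effective concentration is the first dose where the plate-adjusted mean size drops under the 5.665 threshold and stays under it at higher doses.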

SMILES | mean nematode size ln(EXT) (ln) ([1]; 0.5 µM) | mean nematode size ln(EXT) (ln) ([1]; 1 µM) | mean nematode size ln(EXT) (ln) ([1]; 5 µM) | mean nematode size ln(EXT) (ln) ([1]; 10 µM) | mean nematode size ln(EXT) (ln) ([1]; 50 µM) | mean nematode size ln(EXT) (ln) ([1]; 100 µM) | mean nematode size ln(EXT) (ln) ([1]; 200 µM) | AC50 for larval growth inhibition [2] | lowest effective concentration [3]
Cc1cc(C2CC2)nc(Nc2ccccc2)n1 [Cyprodinil] | 5.93 | 5.88 | 5.96 | 5.86 | 5.32 | 5.01 | 4 | 132 µM | 50 µM
CCSC(=O)N(CC(C)C)CC(C)C [Butylate] | 5.97 | 5.89 | 6.11 | 5.97 | 6.05 | 6.06 | 5.65 | 196 µM | 200 µM
O=C(O)c1ccc([N+](=O)[O-])cc1 [4-Nitrobenzoic acid] | 6 | 5.57 | 5.86 | 5.85 | 5.77 | 5.91 | 5.53 | > 200 µM | 200 µM
CN1C(=O)CC[C@H]1c1cccnc1 [(-)-Cotinine] | 5.86 | 5.93 | 5.88 | 5.82 | 5.9 | 5.87 | 5.65 | > 200 µM | 200 µM
COP(=O)(OC)OC=C(Cl)Cl [Dichlorvos] | 6.07 | 6.12 | 5.84 | 5.87 | 5.05 | 4.4 | 3.3 | 80.4 µM | 50 µM
CSc1ccc(Oc2ccc(S(N)(=O)=O)cc2CN(C)C)cc1C | 5.74 | 5.87 | 5.86 | 5.84 | 5.83 | 5.69 | 5.17 | > 200 µM | 200 µM
CS(=O)(=O)c1cc(C(F)(F)F)ccc1C(=O)c1cnoc1C1CC1 [Isoxaflutole] | 6.11 | 6.29 | 6.22 | 6.31 | 6.07 | 6.15 | 5.61 | > 200 µM | 200 µM
S=C([S-])NCCNC(=S)[S-].S=C([S-])NCCNC(=S)[S-].[Mn+2].[Zn+2] [Mancozeb] | 5.79 | 5.84 | 5.84 | 5.85 | 5.83 | 5.7 | 5.39 | > 200 µM | 200 µM
CCN(CC)c1nc(C)cc(OP(=S)(OC)OC)n1 [Pirimiphos-methyl] | 5.93 | 5.93 | 5.83 | 5.92 | 6.01 | 6.01 | 4.12 | 124 µM | 200 µM
CSC(=O)c1cccc2nnsc12 [Acibenzolar-S-Methyl] | 5.65 | 5.73 | 5.67 | 5.6 | 5.37 | 5.36 | 5.36 | > 200 µM | 10 µM
C=CCc1ccc2c(c1)OCO2 [Safrole] | 6.12 | 6.08 | 5.92 | 6.02 | 5.96 | 6.05 | 5.62 | 188 µM | 200 µM
ClC1=C(Cl)[C@]2(Cl)[C@@H]3[C@@H]4C[C@@H]([C@H]5O[C@@H]45)[C@@H]3[C@@]1(Cl)C2(Cl)Cl [Dieldrin] | 5.78 | 5.82 | 5.39 | 5.26 | 5.12 | 5.07 | 4.21 | 171 µM | 5 µM
CC(C)(C)C(=O)C(Oc1ccc(Cl)cc1)n1cncn1 (stereo unspecified) [Triadimefon] | 5.76 | 5.75 | 5.57 | 5.71 | 5.98 | 5.91 | 5.36 | > 200 µM | 200 µM
CC1COC(Cn2cncn2)(c2ccc(Oc3ccc(Cl)cc3)cc2Cl)O1 (stereo unspecified) [Difenoconazole] | 4.06 | 5.79 | 3.52 | 5.15 | 3.59 | 3.58 | 3.51 | 1.84 µM | 5 µM
CCOS(=O)(=O)OCC [Diethyl sulfate] | 5.87 | 5.85 | 5.83 | 5.88 | 5.88 | 4.98 | 5.42 | 55 µM | 100 µM
CCOC(=O)C(O)(c1ccc(Cl)cc1)c1ccc(Cl)cc1 [Chlorobenzilate] | 6.05 | 5.97 | 5.87 | 5.64 | 4.21 | 4.08 | 3.11 | 39.4 µM | 10 µM
Cc1cc(NC(=O)C(=O)O)cc(C)c1Oc1ccc(O)c2c1CCC2 | 5.86 | 5.81 | 5.88 | 5.83 | 5.84 | 5.76 | 5.58 | > 200 µM | 200 µM
CCCCCCCCCCCCc1ccc(S(=O)(=O)O)cc1 [4-Dodecylbenzenesulfonic acid] | 5.45 | 5.6 | 5.55 | 5.63 | 4.03 | 3.77 | 3.53 | 27.5 µM | ≤ 0.5 µM
CCCCCCCCCCCCO [1-Dodecanol] | 5.89 | 5.85 | 5.73 | 5.63 | 3.72 | 3.69 | 3.49 | 20.3 µM | 10 µM
CC(C)CCCCCCCOC(=O)c1ccccc1C(=O)OCCCCCCCC(C)C [Diisodecyl phthalate] | 5.44 | 5.55 | 5.58 | 5.72 | 5.68 | 5.67 | 5.66 | > 200 µM | 200 µM
Cc1cc(C)nc(Nc2ccccc2)n1 [Pyrimethanil] | 6 | 5.86 | 5.84 | 5.84 | 5.68 | 6.12 | 5.4 | 184 µM | 200 µM
O=C1O[C@H]([C@@H](O)CO)C([O-])=C1O.[Na+] [(+)-Sodium L-ascorbate] | 5.84 | 5.88 | 5.78 | 5.85 | 5.29 | 5.05 | 3.96 | 132 µM | 50 µM

SMILES | mean nematode size ln(EXT) (ln) ([1]; 0.5 µM) | mean nematode size ln(EXT) (ln) ([1]; 1 µM) | mean nematode size ln(EXT) (ln) ([1]; 5 µM) | mean nematode size ln(EXT) (ln) ([1]; 10 µM) | mean nematode size ln(EXT) (ln) ([1]; 50 µM) | mean nematode size ln(EXT) (ln) ([1]; 100 µM) | mean nematode size ln(EXT) (ln) ([1]; 200 µM) | AC50 for larval growth inhibition [2] | lowest effective concentration [3]
O=C(OC[C@H]1O[C@@H](OC(=O)c2cc(O)c(O)c(OC(=O)c3cc(O)c(O)c(O)c3)c2)[C@H](OC(=O)c2cc(O)c(O)c(OC(=O)c3cc(O)c(O)c(O)c3)c2)[C@@H](OC(=O)c2cc(O)c(O)c(OC(=O)c3cc(O)c(O)c(O)c3)c2)[C@@H]1OC(=O)c1cc(O)c(O)c(OC(=O)c2cc(O)c(O)c(O)c2)c1)c1cc(O)c(O)c(OC(=O)c2cc(O)c(O)c(O)c2)c1 [Tannic acid] | 5.95 | 5.98 | 5.96 | 5.92 | 5.86 | 5.68 | 5.34 | > 200 µM | 200 µM
NC(=O)N(O)[C@@H]1C=C[C@H](Oc2cccc(Oc3ccc(F)cc3)c2)C1 | 5.9 | 6.14 | 6.17 | 6.17 | 5.89 | 5.05 | 4.86 | 72.9 µM | 100 µM
CCCCCCCC(=O)OC [Methyl octanoate] | 5.88 | 5.84 | 5.85 | 5.9 | 5.74 | 5.88 | 5.52 | > 200 µM | 200 µM
O=C(NC(=O)c1c(F)cccc1F)Nc1cc(Cl)c(OC(F)(F)C(F)F)c(Cl)c1 [Hexaflumuron] | 5.94 | 5.96 | 5.8 | 5.64 | 5.5 | 5.44 | 4.83 | > 200 µM | 10 µM
CC1(C)C(C(=O)OC(C#N)c2cccc(Oc3ccccc3)c2)C1(C)C (stereo unspecified) [Fenpropathrin] | 5.91 | 5.81 | 5.77 | 5.93 | 5.22 | 5.22 | 4.68 | > 200 µM | 50 µM
C1=Cc2cccc3cccc1c23 [Acenaphthylene] | 5.93 | 5.96 | 5.94 | 5.98 | 5.92 | 5.83 | 5.37 | > 200 µM | 200 µM
Cc1cc2c3c(c1)C(c1ccccc1)=N[C@@H](NC(=O)c1ccncc1)C(=O)N3CC2 | 5.86 | 5.88 | 5.88 | 5.88 | 5.9 | 5.83 | 5.23 | > 200 µM | 200 µM
CCC(C)Nc1c([N+](=O)[O-])cc(C(C)(C)C)cc1[N+](=O)[O-] (stereo unspecified) [Butralin] | 5.81 | 5.77 | 5.75 | 5.8 | 4.89 | 4.04 | 4.68 | 48.9 µM | 50 µM
CC1(C)C(C=C(Cl)Cl)C1C(=O)OCc1cccc(Oc2ccccc2)c1 (stereo unspecified) [Permethrin] | 5.91 | 5.9 | 5.67 | 5.56 | 5.41 | 4.98 | 5.24 | 11.2 µM | 10 µM
C=C(C)CN(CC)c1c([N+](=O)[O-])cc(C(F)(F)F)cc1[N+](=O)[O-] [Ethalfluralin] | 5.89 | 6.05 | 5.94 | 5.8 | 6.1 | 5.98 | 4.85 | 141 µM | 200 µM
CCCN(CCC)c1c([N+](=O)[O-])cc(C(C)C)cc1[N+](=O)[O-] [Isopropalin] | 5.89 | 5.9 | 5.87 | 5.73 | 5.47 | 5.14 | 4.96 | > 200 µM | 50 µM
O=S1OCC2C(CO1)C1(Cl)C(Cl)=C(Cl)C2(Cl)C1(Cl)Cl (stereo unspecified) [Endosulfan] | 5.74 | 5.72 | 5.08 | 3.84 | 3.51 | 3.24 | 3.47 | 6.12 µM | 5 µM
Clc1cc(Cl)c(Cl)cc1Cl [1,2,4,5-Tetrachlorobenzene] | 5.97 | 5.98 | 6.07 | 6.11 | 5.34 | 4.83 | 3.82 | 110 µM | 50 µM
CCc1ccc(C(=O)NN(C(=O)c2cc(C)cc(C)c2)C(C)(C)C)cc1 [Tebufenozide] | 6.1 | 6.49 | 6.28 | 6.07 | 5.96 | 6.06 | 5.38 | > 200 µM | 200 µM
CN[C@H]1CC[C@@H](c2ccc(Cl)c(Cl)c2)c2ccc(S(N)(=O)=O)cc21 | 5.87 | 5.84 | 5.88 | 5.84 | 5.4 | 4.42 | 3.62 | 90.3 µM | 50 µM
O=C(Nc1ccccc1-c1ccc(Cl)cc1)c1cccnc1Cl [Boscalid] | 6.09 | 6 | 5.75 | 5.68 | 4.94 | 5.21 | 5.39 | 9.83 µM | 50 µM
CCOP(=S)(OCC)SCCSCC [Disulfoton] | 6.1 | 6.13 | 5.9 | 6.03 | 5.93 | 5.72 | 5.04 | > 200 µM | 200 µM
CN(C)c1ccc(C(=C2C=CC(=[N+](C)C)C=C2)c2ccc(N(C)C)cc2)cc1 [Hexamethyl-p-rosaniline chloride] | 4.79 | 4.53 | 4.01 | 3.85 | 3.66 | 4.08 | 4.02 | < 0.5 µM | ≤ 0.5 µM
Cc1nn(C)c(Oc2ccccc2)c1C=NOCc1ccc(C(=O)OC(C)(C)C)cc1 [(Z,E)-Fenpyroximate] | 4.99 | 4.67 | 4.2 | 4.2 | 4.09 | 4.05 | 3.39 | < 0.5 µM | ≤ 0.5 µM
COP(=S)(OC)SCn1nnc2ccccc2c1=O [Azinphos-methyl] | 6.09 | 6.12 | 6.04 | 5.95 | 5.61 | 5.49 | 3.9 | 170 µM | 50 µM
CCOP(=O)(SC(C)CC)N1CCSC1=O (stereo unspecified) [Fosthiazate] | 5.92 | 5.99 | 6.15 | 6.12 | 5.94 | 5.79 | 5.64 | 93.1 µM | 200 µM
CCOc1cccc(-n2cc(C(=O)N3CCN(c4cc(C(=O)O)c5ccccc5c4)CC3)nc2-c2ccc(C)cc2)c1 | 5.89 | 5.86 | 5.82 | 5.84 | 4.84 | 4.42 | 3.94 | 57.9 µM | 50 µM
